# Measured values published in US20140121231A1, “PYRANOPYRIDONE INHIBITORS OF TANKYRASE” (Hoffmann-La Roche, Inc., priority 2012, published 2014).
# Counter-ions that a name gives are not always drawn.
# How the values were obtained:
# [1] = molecular target: T1, PARP1 (His6-PARP1, full length) (Homo sapiens, UniProt P09874); experiment: TR-FRET Binding Assay (Example 71), PARP1; conditions: TR-FRET assay of Example 71 with His6-PARP1
# T1 construct: His6-PARP1 (full length) can be substituted for His6-TNKS 1
# Outline: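 Competition binding: test compound displaces biotin-IWR2 from His6-PARP1 (full length), read by Eu-streptavidin/APC-anti-His6 TR-FRET. PARP1 30 min at 26°C with compound and probe in Tris pH 7.4 buffer with DTT, BSA and NP-40, then detection reagents for 60 min. Excitation 330 nm, emission 615 and 665 nm; […].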
# [2] = test system: Wnt stimulated TCF transcriptional activity; experiment: Tankyrase 1 Assay (Example 72): HEK293-TS 112 TCF reporter cell line; type: cell-based; conditions: footnote 2: Tankyrase 1 inhibition assay in Example 72 (TOPbrite luciferase reporter, Wnt3A 0.5 ug/mL, 16 hours); read-out: TNKS1 IC50
# Procedure: Inhibition of the Wnt stimulated TCF transcriptional activity by tankyrase inhibitors was determined utilizing a HEK293-TS 112 TCF reporter cell line. A Wnt-responsive luciferase reporter named TOPbrite was constructed by cloning the enhancer element of Super8xTOPFlash containing eight TCF/LEF binding sites into the pGL4.28 vector (Promega) upstream of the minimal promoter element, and selecting for hygromycin B resistance (50 μg/ml). Cells were seeded into 384-well plates in the presence of 0.5 ug/mL of Wnt3A at a density of 20,000 cells per well in 25 ul of F:12 DMEM media supplemented with 10% FBS and 2 mM Glutamax. Cells seeded without the addition of Wnt3A were used as background signal. Compounds of various concentrations were added to cells and incubated at 37 degrees with 5% CO2 for 16 hours. The assay was terminated with the addition of Promega Dual Glo kit per manufacturer's instructions. A ratio of TOPbrite Firefly Luciferase and SV40 Renillla Luciferase was calculated and the background from the neutral wells was subtracted yielding the final normalized measurement of TCF transcriptional activity. Compound IC50s were determined by four-parameter curve fitting using GeneData software.
# tankyrase 2 (His6-TNKS2) = molecular target: T2, tankyrase 2 (His6-TNKS2) (Homo sapiens, UniProt Q9H2K2); experiment: μHTS-TNKS-IWR2 TR-FRET Binding Assay (Example 71), TNKS2; conditions: footnote 1: Tankyrase 1 and 2 inhibition assay in Example 71 (TR-FRET)
# T2 construct: His6-tankyrase 2 (construct: 934-1166) (His6-TNKS2)
# Tankyrase 1 (TNKS1) = molecular target: T3, Tankyrase 1 (TNKS1) (Homo sapiens, UniProt O95271); experiment: μHTS-TNKS-IWR2 TR-FRET Binding Assay (Example 71), TNKS1
# T3 construct: His6-TNKS1, MW=28.2 KDa (construct: 1088-1327, 1266M)
# T3 sequence (O95271 1088-1327): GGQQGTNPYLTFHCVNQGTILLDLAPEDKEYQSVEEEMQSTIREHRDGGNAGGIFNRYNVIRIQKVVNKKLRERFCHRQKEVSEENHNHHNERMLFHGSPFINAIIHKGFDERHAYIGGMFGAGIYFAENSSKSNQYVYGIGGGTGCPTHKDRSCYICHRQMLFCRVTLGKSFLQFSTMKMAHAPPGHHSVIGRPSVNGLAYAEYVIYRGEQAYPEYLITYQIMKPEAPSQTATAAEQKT
# T2 sequence (Q9H2K2 934-1166): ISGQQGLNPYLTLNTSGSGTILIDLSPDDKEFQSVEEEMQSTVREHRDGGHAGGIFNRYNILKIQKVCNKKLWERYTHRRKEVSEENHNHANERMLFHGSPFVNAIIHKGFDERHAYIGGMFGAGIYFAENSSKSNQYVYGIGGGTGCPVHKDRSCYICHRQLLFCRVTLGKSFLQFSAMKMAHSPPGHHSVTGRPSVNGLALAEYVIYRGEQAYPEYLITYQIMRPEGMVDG
# T1 sequence (P09874 whole entry, species assumed): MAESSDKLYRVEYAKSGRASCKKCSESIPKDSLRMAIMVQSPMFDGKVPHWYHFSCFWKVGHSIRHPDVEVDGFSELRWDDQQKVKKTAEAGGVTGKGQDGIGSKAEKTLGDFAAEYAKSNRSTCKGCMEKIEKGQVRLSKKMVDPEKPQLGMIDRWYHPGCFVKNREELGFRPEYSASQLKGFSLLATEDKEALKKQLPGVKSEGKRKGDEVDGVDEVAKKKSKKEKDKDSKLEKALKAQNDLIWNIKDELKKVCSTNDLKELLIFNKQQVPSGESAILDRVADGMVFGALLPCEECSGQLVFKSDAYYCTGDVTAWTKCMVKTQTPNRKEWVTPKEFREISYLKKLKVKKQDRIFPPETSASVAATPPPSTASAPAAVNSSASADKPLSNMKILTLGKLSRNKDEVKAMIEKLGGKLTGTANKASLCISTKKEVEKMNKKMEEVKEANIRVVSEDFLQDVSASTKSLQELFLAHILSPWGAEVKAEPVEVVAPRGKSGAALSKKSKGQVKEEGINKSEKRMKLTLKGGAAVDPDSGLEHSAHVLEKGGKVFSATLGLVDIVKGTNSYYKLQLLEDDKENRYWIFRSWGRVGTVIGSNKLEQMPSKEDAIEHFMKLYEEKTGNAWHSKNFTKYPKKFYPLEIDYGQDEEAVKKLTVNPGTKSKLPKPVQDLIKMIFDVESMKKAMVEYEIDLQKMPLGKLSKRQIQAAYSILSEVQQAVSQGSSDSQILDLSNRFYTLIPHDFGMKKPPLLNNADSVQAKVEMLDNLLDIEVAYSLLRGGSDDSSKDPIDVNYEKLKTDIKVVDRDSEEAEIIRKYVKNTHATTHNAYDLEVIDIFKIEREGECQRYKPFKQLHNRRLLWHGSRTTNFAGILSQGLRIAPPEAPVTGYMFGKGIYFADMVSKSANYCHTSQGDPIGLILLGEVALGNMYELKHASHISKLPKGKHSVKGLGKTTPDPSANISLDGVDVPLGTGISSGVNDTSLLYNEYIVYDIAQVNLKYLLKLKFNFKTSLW
Compound,IC50 [1] [nM],IC50 (tankyrase 2 (His6-TNKS2)) [nM],IC50 (Tankyrase 1 (TNKS1)) [nM],IC50 [2] [nM]
"Cc1cccc2c(=O)[nH]c3c(c12)COC(C(C)(C)CO)C3 (racemic) [Compound I-1, rac-2-(2-Hydroxy-1,1-dimethyl-ethyl)-5-methyl-1,2,4,10-tetrahydro-3-oxa-10-aza-phenanthren-9-one]",91.8,–,–,10.6
"CC(C)C1Cc2[nH]c(=O)c3cccc(F)c3c2CO1 (stereo not shown) [Compound I-69, 10-Fluoro-3-isopropyl-1 3 4 5-tetrahydropyrano[4,3-c]isoquinolin-6-one]",–,–,–,11.2
"CC(C)C1Cc2[nH]c(=O)c3cccc(Cl)c3c2CO1 (stereo not shown) [Compound I-70, 10-chloro-3-isopropyl-1 3 4 5-tetrahydropyrano[4,3-c]isoquinolin-6-one]",–,–,–,12.9
"Cc1cccc2c(=O)[nH]c3c(c12)COC(C1CCN(C2COC2)CC1)C3 (stereo not shown) [Compound I-71, 10-methyl-3-[1-(oxetan-3-yl)-4-piperidyl]-1 3 4 5-tetrahydropyrano[4,3-c]isoquinolin-6-one]",–,–,–,2.01
"Cc1cccc2c(=O)[nH]c3c(c12)COC(C1CCN(C2CCOCC2)CC1)C3 (stereo not shown) [Compound I-72, 10-Methyl-3-(1-tetrahydropyran-4-yl-4-piperidyl)-1 3 4 5-tetrahydropyrano[4,3-c]isoquinolin-6-one]",–,–,–,92.4
"COCCN1CCC(C2Cc3[nH]c(=O)c4cccc(C)c4c3CO2)CC1 (stereo not shown) [Compound I-73, 3-[1-(2-methoxyethyl)-4-piperidyl]-10-methyl-1 3 4 5-tetrahydropyrano[4,3-c]isoquinolin-6-one]",–,–,–,29.4
"Cc1cccc2c(=O)[nH]c3c(c12)COC(C1CCN(S(=O)(=O)C2CCOCC2)CC1)C3 (stereo not shown) [Compound I-74, 10-methyl-3-(1-tetrahydropyran-4-ylsulfonyl-4-piperidyl)-1 3 4 5-tetrahydropyrano[4,3-c]isoquinolin-6-one]",–,–,–,9.5
"Cc1cccc2c(=O)[nH]c3c(c12)COC(C1CCN(CCO)CC1)C3 (stereo not shown) [Compound I-75, 3-[1-(2-hydroxyethyl)-4-piperidyl]-10-methyl-1 3 4 5-tetrahydropyrano[4,3-c]isoquinolin-6-one]",–,–,–,27.2
"Cc1cccc2c(=O)[nH]c3c(c12)COC(CC(C)O)C3 (stereo not shown) [Compound I-76, 3-(2-hydroxypropyl)-10-methyl-1 3 4 5-tetrahydropyrano[4,3-c]isoquinolin-6-one]",–,–,–,15.9

# Second part, led by results:
IC50 [1] [nM],IC50 (tankyrase 2 (His6-TNKS2)) [nM],IC50 (Tankyrase 1 (TNKS1)) [nM],Compound,IC50 [2] [nM]
2270,144,72.9,"O=c1[nH]c2c(c3ccccc13)COC1(CCCC1)C2 [Compound I-9, 1,5′-Dihydrospiro[cyclopentane-1,3′-pyrano[4,3-c]isoquinolin]-6′(4′H)-one]",–
> 50000,88.3,56.8,"CCC(C)C1Cc2[nH]c(=O)c3ccccc3c2CO1 (stereo not shown) [Compound I-18, 2-sec-Butyl-1,2,4,10-tetrahydro-3-oxa-10-aza-phenanthren-9-one]",–
69.9,56,37.9,"CC(C)(C)OC(=O)N1CCC(C2Cc3[nH]c(=O)c4ccccc4c3CO2)C1 (stereo not shown) [Compound I-35, 3-(9-Oxo-1,4,9,10-tetrahydro-2H-3-oxa-10-aza-phenanthren-2-yl)-pyrrolidine-1-carboxylic acid tert-butyl ester]",–
27.7,246,168,"O=c1[nH]c2c(c3ccccc13)COC(C1CCNC1)C2 (stereo not shown) [Compound I-36, 2-Pyrrolidin-3-yl-1,2,4,10-tetrahydro-3-oxa-10-aza-phenanthren-9-one, hydrochloride]",–
104,67.4,49.9,"CC(=O)N1CCC(C2Cc3[nH]c(=O)c4ccccc4c3CO2)C1 (stereo not shown) [Compound I-37, 2-(1-Acetyl-pyrrolidin-3-yl)-1,2,4,10-tetrahydro-3-oxa-10-aza-phenanthren-9-one]",–
67.3,65.6,42.2,"O=C(C1CC1)N1CCC(C2Cc3[nH]c(=O)c4ccccc4c3CO2)C1 (stereo not shown) [Compound I-44, 2-(1-Cyclopropanecarbonyl-pyrrolidin-3-yl)-1,2,4,10-tetrahydro-3-oxa-10-aza-phenanthren-9-one]",–
78.3,86.7,64.7,"CC1(C(=O)N2CCC(C3Cc4[nH]c(=O)c5ccccc5c4CO3)C2)CC1 (stereo not shown) [Compound I-45, 2-[1-(1-Methyl-cyclopropanecarbonyl)-pyrrolidin-3-yl]-1,2,4,10-tetrahydro-3-oxa-10-aza-phenanthren-9-one]",–
363,49.8,39,"CC(C)(C)OC(=O)N1CCC(C2Cc3[nH]c(=O)c4cccnc4c3CO2)CC1 (stereo not shown) [Compound I-51, tert-butyl 4-(5-oxo-6 7 8 10-tetrahydropyrano[4 3-h][l 6]naphthyridin-8-yl)piperidine-1-carboxylate]",–
26,28.7,28,"Cc1cccc2c(=O)[nH]c3c(c12)COC(C(C)(C)COCc1ccccc1)C3 (stereo not shown) [Compound I-68, 3-(2-benzyloxy-1 1-dimethyl-ethyl)-10-methyl-1 3 4 5-tetrahydropyrano[4 3-c]isoquinolin-6-one]",–
